Source: ChEMBL document CHEMBL3352306, “Synthesis and antitumor activity of feruloyl and caffeoyl derivatives” (Bioorg Med Chem Lett, 2014)
pIC50: −log10 of the molar value. Active and inactive are the calls of the source. No cut-off for these calls is given here.

Experiments:
HepG2 = assay: Antitumor activity against human HepG2 cells assessed as inhibition of cell growth by MTT assay; type: functional, cell-based
SiHa = assay: Antitumor activity against human SiHa cells assessed as inhibition of cell growth by MTT assay; type: functional, cell-based
[1] = Antitumor activity against human SGC7901 cells assessed as inhibition of cell growth by MTT assay; type: functional, cell-based; settings: SGC-7901
BeWo = assay: Antitumor activity against human Bewo cells assessed as inhibition of cell growth by MTT assay; type: functional, cell-based
[2] = Antitumor activity against human HL60 cells assessed as inhibition of cell growth by MTT assay; type: functional, cell-based; settings: HL-60
HeLa = assay: Antitumor activity against human HeLa cells assessed as inhibition of cell growth by MTT assay; type: functional, cell-based
CCRF S-180 = assay: Antitumor activity against mouse S180 cells implanted in mouse assessed as inhibition of tumor growth at 40 mg/kg; type: functional
A549 = assay: Antitumor activity against human A549 cells assessed as inhibition of cell growth by MTT assay; type: functional, cell-based
HL-60 [3] = assay: Induction of apoptosis in human HL60 cells at 0.5 to 2 ug/mL by flow cytometry; type: functional, cell-based
[4] = Antitumor activity against human Bel7404 cells assessed as inhibition of cell growth by MTT assay; type: functional, cell-based; settings: BEL-7404
HL-60 [5] = assay: Induction of cell morphological changes in human HL60 cells at 2.5 to 10 ug/mL; type: functional, cell-based
MCF7 = assay: Antitumor activity against human MCF7 cells assessed as inhibition of cell growth by MTT assay; type: functional, cell-based
[6] = Antitumor activity against human […] cells assessed as inhibition of cell growth by MTT assay; type: functional, cell-based

| SMILES | pIC50 (HepG2) | pIC50 (SiHa) | pIC50 [1] | pIC50 (BeWo) | pIC50 [2] | pIC50 (HeLa) | inhibition in vivo at 40 mg/kg (CCRF S-180) | pIC50 (A549) | Activity (HL-60 [3]) | pIC50 [4] | Activity (HL-60 [5]) | pIC50 (MCF7) | pIC50 [6] |
| --- | --- | --- | --- | --- | --- | --- | --- | --- | --- | --- | --- | --- | --- |
| CCCCCCC(C)OC(=O)/C=C/c1ccc(O)c(O)c1 (stereo unspecified) | 4.62 | 4.30 | 4.76 | 6.39 | 5.29 | 4.42 | – | – | – | – | – | – | – |
| CCCCCCCCOC(=O)/C=C/c1ccc(O)c(O)c1 | 4.27 | 4.34 | 4.25 | 4.88 | 5.08 | 4.46 | – | – | – | – | – | – | – |
| CCCCOC(=O)/C=C/c1ccc(O)c(O)c1 [BUTYL CAFFEATE] | < 4.00 | 4.39 | < 4.00 | 5.27 | 5.12 | 4.39 | – | – | – | – | – | – | – |
| CC1(C)C2CCC1(C)C(OC(=O)/C=C/c1ccc(O)c(O)c1[N+](=O)[O-])C2 (stereo unspecified) | – | 4.29 | – | 5.03 | 4.28 | 4.86 | – | – | – | – | – | – | – |
| O=C(/C=C/c1ccc(O)c(O)c1)OC1CCCCC1 | 4.34 | 4.29 | 4.02 | 5.56 | 5.08 | 4.62 | – | – | – | – | – | – | – |
| CCOC(=O)/C=C/c1ccc(O)c(O)c1 [ETHYL CAFFEATE] | 4.19 | 4.47 | < 4.00 | 5.21 | 5.05 | 4.63 | – | – | – | – | – | – | – |
| O=C(/C=C/c1ccc(O)c(O)c1)OCCCCc1ccccc1 | 4.31 | 4.05 | 4.40 | 5.24 | 4.95 | 4.50 | – | – | – | – | – | – | – |
| COc1cc(/C=C/C(=O)NC23CC4CC(CC(C4)C2)C3)ccc1O | – | 4.17 | – | < 4.00 | < 4.00 | < 4.00 | – | – | – | – | – | – | – |
| CCCCCCCOC(=O)/C=C/c1ccc(O)c(O)c1 | 4.35 | 4.45 | 4.47 | 5.56 | 5.35 | 4.67 | – | – | – | – | – | – | – |
| CCCCCCCCCCCCCCCCCCOC(=O)/C=C/c1ccc(O)c(O)c1 | 5.31 | < 4.00 | 4.76 | < 4.00 | 4.99 | < 4.00 | – | – | – | – | – | – | – |
| CC(C)OC(=O)/C=C/c1ccc(O)c(O)c1 | 4.04 | 4.32 | 4.01 | 5.23 | 4.93 | 4.52 | – | – | – | – | – | – | – |
| O=C(/C=C/c1ccc(O)c(O)c1)OCCc1ccccc1 [CAFFEIC ACID PHENETHYL ESTER] | 4.39 | 4.17 | 4.85 | 5.53 | 4.78 | 4.42 | – | – | – | – | – | – | – |
| C#CCOC(=O)/C=C/c1ccc(O)c(O)c1 | < 4.00 | 4.41 | < 4.00 | 5.05 | 4.91 | 4.72 | – | – | – | – | – | – | – |
| O=C(/C=C/c1ccc(O)c(O)c1)O[C@H]1C[C@@](O)(C(=O)O)C[C@H](O)[C@@H]1O | < 4.00 | – | < 4.00 | – | < 4.00 | – | – | – | – | – | – | – | – |
| O=C(/C=C/c1cc(O)c(O)c(Cl)c1)NC12CC3CC(CC(C3)C1)C2 | – | 4.72 | – | 4.17 | 4.45 | 4.30 | – | – | – | – | – | – | – |
| C=CCOC(=O)/C=C/c1ccc(O)c(O)c1 | < 4.00 | 4.51 | 4.05 | 5.06 | 4.94 | 4.17 | – | – | – | – | – | – | – |
| O=C(/C=C/c1cc(O)c(O)c(Cl)c1)OCCc1ccccc1 | – | – | 5.09 | – | 5.15 | – | – | – | – | – | – | – | – |
| CCCOC(=O)/C=C/c1ccc(O)c(O)c1 | < 4.00 | 4.35 | < 4.00 | 5.29 | 4.93 | 4.54 | – | – | – | – | – | – | – |
| CC1(C)C2CCC1(C)C(OC(=O)/C=C/c1cc(O)c(O)c(Cl)c1)C2 (stereo unspecified) | – | 4.47 | 4.16 | 4.28 | 4.73 | 4.41 | – | – | – | – | – | – | – |
| CC(C)(COC(=O)/C=C/c1ccc(O)c(O)c1)[N+](=O)[O-] | 4.42 | 4.52 | < 4.00 | 5.14 | 5.03 | 4.63 | – | – | – | – | – | – | – |
| COC(=O)/C=C/c1ccc(O)c(O)c1 [METHYLCAFFEATE] | 4.09 | 4.22 | < 4.00 | 4.76 | 4.91 | 4.28 | – | – | – | – | – | – | – |

| SMILES | pIC50 (HepG2) | pIC50 (SiHa) | pIC50 [1] | pIC50 (BeWo) | pIC50 [2] | pIC50 (HeLa) | inhibition in vivo at 40 mg/kg (CCRF S-180) | pIC50 (A549) | Activity (HL-60 [3]) | pIC50 [4] | Activity (HL-60 [5]) | pIC50 (MCF7) | pIC50 [6] |
| --- | --- | --- | --- | --- | --- | --- | --- | --- | --- | --- | --- | --- | --- |
| O=C(/C=C/c1ccc(O)c(O)c1)OC12CC3CC(CC(C3)C1)C2 | 4.52 | < 4.00 | 4.53 | < 4.00 | 5.09 | < 4.00 | – | – | – | – | – | – | – |
| O=C(/C=C/c1ccc(O)c(O)c1)Oc1ccccc1 | 4.29 | 4.28 | 4.04 | 4.51 | 4.97 | 4.53 | – | – | – | – | – | – | – |
| O=C(/C=C/c1ccc(O)c(O)c1)Oc1ccc2ccccc2c1 | 4.83 | 4.40 | 4.35 | 6.44 | 5.47 | 5.09 | – | – | – | – | – | – | – |
| O=C(/C=C/c1ccc(O)c(O)c1)NC12CC3CC(CC(C3)C1)C2 | 4.52 | 4.38 | 4.53 | 5.96 | 5.09 | 4.99 | – | – | – | – | – | – | – |
| O=P1(N(CCCl)CCCl)NCCCO1 (stereo unspecified) [CYCLOPHOSPHAMIDE ANHYDROUS] | – | – | – | – | – | – | 54.8% | – | – | – | – | – | – |
| COc1cccc2c1C(=O)c1c(O)c3c(c(O)c1C2=O)C[C@@](O)(C(=O)CO)C[C@@H]3O[C@H]1C[C@H](N)[C@H](O)[C@H](C)O1 [DOXORUBICIN] | – | 5.69 | – | 5.97 | 6.38 | 6.48 | – | – | – | – | – | – | – |
| COc1cc(/C=C/C(=O)NC23CC4CC(CC(C4)C2)C3)cc(Cl)c1O | – | 4.46 | – | 4.35 | 4.17 | 4.01 | – | – | – | – | – | – | – |
| O=C(/C=C/c1ccc(O)c(O)c1)OCc1ccccc1 [BENZYL CAFFEATE] | 4.07 | 4.13 | 4.15 | 4.55 | 5.10 | 4.63 | – | – | – | – | – | – | – |
| COc1c(O)ccc(/C=C/C(=O)NC23CC4CC(CC(C4)C2)C3)c1[N+](=O)[O-] | – | 4.41 | – | 4.57 | 4.14 | 4.04 | – | – | – | – | – | – | – |
| O=C(/C=C/c1cc(O)c(O)c(Br)c1)NC12CC3CC(CC(C3)C1)C2 | – | < 4.00 | – | 4.22 | < 4.00 | 4.48 | – | – | – | – | – | – | – |
| O=C(/C=C/c1cc(O)c(O)c([N+](=O)[O-])c1)OC12CC3CC(CC(C3)C1)C2 | 5.42 | 5.17 | 5.34 | 5.25 | 5.39 | 5.89 | 36.7% | 5.36 | Active | 4.67 | Active | 5.39 | 5.09 |
| COc1cc(/C=C/C(=O)NC23CC4CC(CC(C4)C2)C3)cc(Br)c1O | – | 4.08 | – | 4.38 | 4.30 | < 4.00 | – | – | – | – | – | – | – |
| O=C(/C=C/c1ccc(O)c(O)c1[N+](=O)[O-])OCCc1ccccc1 | – | 4.77 | – | 5.36 | 4.74 | 4.96 | – | – | – | – | – | – | – |
| CC(C)(C)OC(=O)/C=C/c1ccc(O)c(O)c1 | 4.16 | 4.38 | 4.10 | 5.46 | 5.10 | 4.78 | – | – | – | – | – | – | – |
| CCC(C)OC(=O)/C=C/c1ccc(O)c(O)c1 (stereo unspecified) | 4.02 | 4.47 | < 4.00 | 5.50 | 4.90 | 4.86 | – | – | – | – | – | – | – |
| COc1cc(/C=C/C(=O)OC23CC4CC(CC(C4)C2)C3)ccc1O | – | < 4.00 | – | 4.15 | 4.03 | 4.22 | – | – | – | – | – | – | – |
| CC1(C)C2CCC1(C)C(OC(=O)/C=C/c1ccc(O)c(O)c1)C2 (stereo unspecified) | 4.50 | 4.13 | 4.92 | 4.45 | 5.47 | 4.69 | – | – | – | – | – | – | – |
| O=C(/C=C/c1cc(O)c(O)c(Br)c1)OCCc1ccccc1 | 5.35 | 4.55 | 5.17 | 5.08 | 5.07 | 4.76 | – | – | – | – | – | – | – |
| CC1(C)C2CCC1(C)C(OC(=O)/C=C/c1cc(O)c(O)c(Br)c1)C2 (stereo unspecified) | – | 4.54 | – | 4.70 | 4.82 | 4.64 | – | – | – | – | – | – | – |
| COc1cc(/C=C/C(=O)NC23CC4CC(CC(C4)C2)C3)cc([N+](=O)[O-])c1O | – | 4.23 | – | 4.17 | 4.73 | 4.18 | – | – | – | – | – | – | – |
